From US20230131899A1, “INHIBITORS OF MICROBIALLY INDUCED AMYLOID” (Axial Therapeutics, Inc., priority 2020, published 2023)
Like-named read-outs stand apart in the source and are kept apart here.

System: CsgA gene expression (csgBAC promoter-GFP reporter) in E. coli UTI89
Test: In vitro live cell fluorescent reporter assay of CsgA transcription (Reporter Assay)
Assay type: cell-based
Outline: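 Chromosomal single-copy csgBAC promoter–GFP reporter in E. coli UTI89, started at OD600 0.003 in YESCA broth with compound (0.14–100 μM, 1% DMSO), 20 h at 27 °C. GFP (ex 485/em 525 nm) background-subtracted and normalized to vehicle; IC50 and X[50] from curve fits. OD600 tracked growth effects.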

[1] = Escherichia coli, read-out: Reporter Assay Abs IC50 (activity range), median Abs IC50 in the CsgA reporter assay, class symbol
[2] = Escherichia coli, read-out: Reporter Assay Abs IC50 (μM), median Abs IC50 in the CsgA reporter assay, N/A = maximum expression reduction is <50% of control
[3] = Escherichia coli, read-out: Reporter Assay Abs IC50, activity range, class symbol
[4] = read-out: Reporter Assay Abs IC50 (activity range), median Abs IC50 in the CsgA reporter assay, class symbol
[5] = read-out: Reporter Assay Abs IC50, median Abs IC50 in the CsgA reporter assay, N/A = maximum expression reduction is <50% of control

SMILES | IC50 [1] [µM] | IC50 [2] [µM] | IC50 [3] [µM] | IC50 [4] [µM] | IC50 [5] [µM]
O=C(O)C1CN(C[C@@H](O)CO)S(=O)(=O)c2c(-c3cccc(C(F)(F)F)c3)c(Cc3cccc4ccccc34)cc(=O)n21 (mixture of isomers) [Compound 065b, 2-((R)-2,3-dihydroxypropyl)-8-(naphthalen-1-ylmethyl)-6-oxo-9-(3-(trifluoromethyl)phenyl)-3,4-dihydro-2H,6H-pyrido[1,2-e][1,2,5]thiadiazine-4-carboxylic acid 1,1-dioxide] | > 10 | 18.1 | – | – | –
O=C(O)C1CN(C[C@H](O)[C@@H](O)[C@H](O)[C@H](O)CO)S(=O)(=O)c2c(-c3cccc(C(F)(F)F)c3)c(Cc3cccc4ccccc34)cc(=O)n21 (mixture of isomers) [Compound 066, 8-(naphthalen-1-ylmethyl)-6-oxo-2-((2S,3R,4R,5R)-2,3,4,5,6-pentahydroxyhexyl)-9-(3-(trifluoromethyl)phenyl)-3,4-dihydro-2H,6H-pyrido[1,2-e][1,2,5]thiadiazine-4-carboxylic acid 1,1-dioxide] | > 10 | 40.2 | – | – | –
O=C(O)[C@@H]1CN(Cc2ccccc2)c2c(-c3cccc(C(F)(F)F)c3)c(Cc3cccc4ccccc34)c(Cl)c(=O)n21 (single isomer, unassigned) [Compound 004a] | – | 0.2 | < 1.3 | – | –
O=C(O)[C@H]1CN(Cc2ccccc2)c2c(-c3cccc(C(F)(F)F)c3)c(Cc3cccc4ccccc34)c(Cl)c(=O)n21 (single isomer, unassigned) [Compound 004b] | – | 0.5 | < 1.3 | – | –
CCCN1CC(C(=O)O)n2c(c(-c3cccc(C(F)(F)F)c3)c(Cc3cccc4ccccc34)cc2=O)S1(=O)=O (single isomer, unassigned) [Compound 016b, 8-(naphthalen-1-ylmethyl)-6-oxo-2-propyl-9-(3-(trifluoromethyl)phenyl)-3,4-dihydro-2H,6H-pyrido[1,2-e][1,2,5]thiadiazine-4-carboxylic acid 1,1-dioxide] | – | – | – | 4.6 to 10 | 6.6
Nc1c(Cc2cccc3ccccc23)c(-c2cccc(C(F)(F)F)c2)c2n(c1=O)C(C(=O)O)CS2 (single isomer, unassigned) [Compound 020b, 6-amino-7-(naphthalen-1-ylmethyl)-5-oxo-8-(3-(trifluoromethyl)phenyl)-2,3-dihydro-5H-thiazolo[3,2-a]pyridine-3-carboxylic acid] | – | – | – | 4.6 to 10 | 5.7
CCCCCN1CC(C(=O)O)n2c(c(-c3cccc(C(F)(F)F)c3)c(Cc3cccc4ccccc34)cc2=O)S1(=O)=O (single isomer, unassigned) [Compound 025a, 8-(naphthalen-1-ylmethyl)-6-oxo-2-pentyl-9-(3-(trifluoromethyl)phenyl)-3,4-dihydro-2H,6H-pyrido[1,2-e][1,2,5]thiadiazine-4-carboxylic acid 1,1-dioxide] | 1.3 to 4.5 | 2 | – | – | –
O=C(O)C1CN(Cc2ccccc2)c2c(-c3cccc(C(F)(F)F)c3)c(Cc3cccc4ccccc34)c(Br)c(=O)n21 (centres unmarked) [Compound 003, 1-benzyl-6-bromo-7-(naphthalen-1-ylmethyl)-5-oxo-8-(3-(trifluoromethyl)phenyl)-1,2,3,5-tetrahydroimidazo[1,2-a]pyridine-3-carboxylic acid] | – | 0.8 | < 1.3 | – | –
O=C(O)C1CN(Cc2ccccc2)c2c(-c3cccc(C(F)(F)F)c3)c(Cc3cccc4ccccc34)c(Cl)c(=O)n21 (centres unmarked) [Compound 004, 1-benzyl-6-chloro-7-(naphthalen-1-ylmethyl)-5-oxo-8-(3-(trifluoromethyl)phenyl)-1,2,3,5-tetrahydroimidazo[1,2-a]pyridine-3-carboxylic acid] | – | 0.7 | < 1.3 | – | –
CNC(=O)C1CN(C)S(=O)(=O)c2c(-c3cccc(C(F)(F)F)c3)c(Cc3cccc4ccccc34)cc(=O)n21 (centres unmarked) [Compound 031, N,2-dimethyl-8-(naphthalen-1-ylmethyl)-6-oxo-9-(3-(trifluoromethyl)phenyl)-3,4-dihydro-2H,6H-pyrido[1,2-e][1,2,5]thiadiazine-4-carboxamide 1,1-dioxide] | 1.3 to 4.5 | 4.2 | – | – | –
CN(C)C(=O)C1CN(C)S(=O)(=O)c2c(-c3cccc(C(F)(F)F)c3)c(Cc3cccc4ccccc34)cc(=O)n21 (centres unmarked) [Compound 032, N,N-2-trimethyl-8-(naphthalen-1-ylmethyl)-6-oxo-9-(3-(trifluoromethyl)phenyl)-3,4-dihydro-2H,6H-pyrido[1,2-e][1,2,5]thiadiazine-4-carboxamide 1,1-dioxide] | 1.3 to 4.5 | 3.3 | – | – | –
Cn1c(=O)c2c(ncn2CCCCN2CC(C(=O)O)n3c(c(-c4cccc(C(F)(F)F)c4)c(Cc4cccc5ccccc45)cc3=O)S2(=O)=O)n(C)c1=O (centres unmarked) [Compound 033, 2-(4-(1,3-dimethyl-2,6-dioxo-1,2,3,6-tetrahydro-7H-purin-7-yl)butyl)-8-(naphthalen-1-ylmethyl)-6-oxo-9-(3-(trifluoromethyl)phenyl)-3,4-dihydro-2H,6H-pyrido[1,2-e][1,2,5]thiadiazine-4-carboxylic acid 1,1-dioxide] | 1.3 to 4.5 | 3.3 | – | – | –
Cn1c(=O)c2c(ncn2CCCCCN2CC(C(=O)O)n3c(c(-c4cccc(C(F)(F)F)c4)c(Cc4cccc5ccccc45)cc3=O)S2(=O)=O)n(C)c1=O (centres unmarked) [Compound 034, 2-(5-(1,3-dimethyl-2,6-dioxo-1,2,3,6-tetrahydro-7H-purin-7-yl)pentyl)-8-(naphthalen-1-ylmethyl)-6-oxo-9-(3-(trifluoromethyl)phenyl)-3,4-dihydro-2H,6H-pyrido[1,2-e][1,2,5]thiadiazine-4-carboxylic acid 1,1-dioxide] | 1.3 to 4.5 | 2.8 | – | – | –
Cn1c(=O)c2c(ncn2CCCCCCCN2CC(C(=O)O)n3c(c(-c4cccc(C(F)(F)F)c4)c(Cc4cccc5ccccc45)cc3=O)S2(=O)=O)n(C)c1=O (centres unmarked) [Compound 036] | 1.3 to 4.5 | 1.6 | – | – | –
CNC(=O)CCCN1CC(C(=O)O)n2c(c(-c3cccc(C(F)(F)F)c3)c(Cc3cccc4ccccc34)cc2=O)S1(=O)=O (centres unmarked) [Compound 037, 2-(4-(methylamino)-4-oxobutyl)-8-(naphthalen-1-ylmethyl)-6-oxo-9-(3-(trifluoromethyl)phenyl)-3,4-dihydro-2H,6H-pyrido[1,2-e][1,2,5]thiadiazine-4-carboxylic acid 1,1-dioxide] | > 10 | 23.6 | – | – | –
CNC(=O)CCCCN1CC(C(=O)O)n2c(c(-c3cccc(C(F)(F)F)c3)c(Cc3cccc4ccccc34)cc2=O)S1(=O)=O (centres unmarked) [Compound 038, 2-(5-(methylamino)-5-oxopentyl)-8-(naphthalen-1-ylmethyl)-6-oxo-9-(3-(trifluoromethyl)phenyl)-3,4-dihydro-2H,6H-pyrido[1,2-e][1,2,5]thiadiazine-4-carboxylic acid 1,1-dioxide] | > 10 | 24 | – | – | –
Nc1c(Cc2ccc(N)c3ccccc23)c(-c2cccc(C(F)(F)F)c2)c2n(c1=O)C(C(=O)O)CNS2(=O)=O (centres unmarked) [Compound 041] | > 10 | 20.2 | – | – | –
CC1(C(=O)O)CNS(=O)(=O)c2c(-c3cccc(C(F)(F)F)c3)c(Cc3cccc4ccccc34)cc(=O)n21 (centres unmarked) [Compound 042, 4-methyl-8-(naphthalen-1-ylmethyl)-6-oxo-9-(3-(trifluoromethyl)phenyl)-3,4-dihydro-2H,6H-pyrido[1,2-e][1,2,5]thiadiazine-4-carboxylic acid 1,1-dioxide] | 1.3 to 4.5 | 3.3 | – | – | –
Cn1c(=O)c2c(nc(CCCCN3CC(C(=O)O)n4c(c(-c5cccc(C(F)(F)F)c5)c(Cc5cccc6ccccc56)cc4=O)S3(=O)=O)n2C)n(C)c1=O (centres unmarked) [Compound 044, 8-(naphthalen-1-ylmethyl)-6-oxo-9-(3-(trifluoromethyl)phenyl)-2-(4-(1,3,7-trimethyl-2,6-dioxo-2,3,6,7-tetrahydro-1H-purin-8-yl)butyl)-3,4-dihydro-2H,6H-pyrido[1,2-e][1,2,5]thiadiazine-4-carboxylic acid 1,1-dioxide] | 1.3 to 4.5 | 1.5 | – | – | –
Cn1c(=O)c2c(nc(CCCCCN3CC(C(=O)O)n4c(c(-c5cccc(C(F)(F)F)c5)c(Cc5cccc6ccccc56)cc4=O)S3(=O)=O)n2C)n(C)c1=O (centres unmarked) [Compound 045, 8-(naphthalen-1-ylmethyl)-6-oxo-9-(3-(trifluoromethyl)phenyl)-2-(5-(1,3,7-trimethyl-2,6-dioxo-2,3,6,7-tetrahydro-1H-purin-8-yl)pentyl)-3,4-dihydro-2H,6H-pyrido[1,2-e][1,2,5]thiadiazine-4-carboxylic acid 1,1-dioxide] | 1.3 to 4.5 | 1.3 | – | – | –
Cn1c(=O)c2c(nc(CCCCCCN3CC(C(=O)O)n4c(c(-c5cccc(C(F)(F)F)c5)c(Cc5cccc6ccccc56)cc4=O)S3(=O)=O)n2C)n(C)c1=O (centres unmarked) [Compound 046, 8-(naphthalen-1-ylmethyl)-6-oxo-9-(3-(trifluoromethyl)phenyl)-2-(6-(1,3,7-trimethyl-2,6-dioxo-2,3,6,7-tetrahydro-1H-purin-8-yl)hexyl)-3,4-dihydro-2H,6H-pyrido[1,2-e][1,2,5]thiadiazine-4-carboxylic acid 1,1-dioxide] | 1.3 to 4.5 | 1.6 | – | – | –
Cn1c(=O)c2c(nc(CCCCCCCN3CC(C(=O)O)n4c(c(-c5cccc(C(F)(F)F)c5)c(Cc5cccc6ccccc56)cc4=O)S3(=O)=O)n2C)n(C)c1=O (centres unmarked) [Compound 047, 8-(naphthalen-1-ylmethyl)-6-oxo-9-(3-(trifluoromethyl)phenyl)-2-(7-(1,3,7-trimethyl-2,6-dioxo-2,3,6,7-tetrahydro-1H-purin-8-yl)heptyl)-3,4-dihydro-2H,6H-pyrido[1,2-e][1,2,5]thiadiazine-4-carboxylic acid 1,1-dioxide] | < 1.3 | 0.9 | – | – | –
